The results in this text go back to publication PMC5349906, “NT1721, a novel epidithiodiketopiperazine, exhibits potent in vitro and in vivo efficacy against acute myeloid leukemia” (Oncotarget, 2016).

The target in this experiment is T1, SUV39H1 (Homo sapiens, UniProt O43463).
T1 construct: recombinant SUV39H1
T1 sequence (O43463 1-412): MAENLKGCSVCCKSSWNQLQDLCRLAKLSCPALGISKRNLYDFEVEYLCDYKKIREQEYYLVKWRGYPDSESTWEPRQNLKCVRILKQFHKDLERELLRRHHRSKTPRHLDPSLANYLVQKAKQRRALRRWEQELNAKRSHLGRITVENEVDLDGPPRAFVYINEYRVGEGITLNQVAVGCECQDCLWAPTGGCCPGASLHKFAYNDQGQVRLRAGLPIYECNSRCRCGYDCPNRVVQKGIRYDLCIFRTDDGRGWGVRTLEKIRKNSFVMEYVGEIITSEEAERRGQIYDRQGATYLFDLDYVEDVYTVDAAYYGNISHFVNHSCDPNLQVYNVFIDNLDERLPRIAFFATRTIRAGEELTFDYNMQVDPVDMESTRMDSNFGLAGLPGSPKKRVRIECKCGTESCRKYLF
Briefly: cell-free histone methyltransferase activity assay with recombinant enzyme (data not shown). In kind it is biochemical.

Take `CN1C(=O)[C@@]23C[C@](C)(C#N)[C@H](c4ccc5c(c4)OCO5)N2C(=O)[C@]1(C)SS3` (racemic) [NT1721]: the IC50 (commonly the concentration needed to halve the response being measured) was determined as 1.3 µM.
